In patent US20230025932A1, “NOVEL FUNCTIONALIZED LACTONES AS MODULATORS OF THE 5-HYDROXYTRYPTAMINE RECEPTOR 7 AND THEIR METHOD OF USE” (Temple University-Of The Commonwealth System of Higher …, priority 2019, published 2023):

Legend:
5-HT7 receptors [1] = target: T1, 5-HT7 receptors (Homo sapiens, UniProt P34969); experiment: Functional cAMP enzyme fragment complementation assay (HitHunter cAMP), antagonist Kb; type: cell-based; set-up: expressed in transfected cells; details: cells expressing human 5HT7, antagonist mode with EC70 5-HT
Procedure: Functional efficacy of the compounds of the disclosure on 5-HT7 serotonin receptors are measured in a cell based cAMP enzyme fragment complementation assay using the HitHunter cAMP assay (DiscoveRx). Cells stably expressing human 5HT7 receptors are plated in 96-well plates at 4000 cells/well, 16-20 hours prior to assay in growth media (Ultraculture medium, 2 mM GlutaMax and G418 1 mg/mL. Serial dilutions of the agonist, 5-hydroxytryptamine (5-HT), are prepared in a final concentration range of 10 μM to 10 nM. Compounds of the disclosure are prepared in 3-fold serial dilutions to obtain a final concentration range of 10 μM to 0.1 nM. Compounds of the disclosure are tested for agonist activity in the absence of 5-HT and antagonist activity in the presence of 5-HT. For the cAMP assay, the protocol is followed according to the instructions provided by the supplier. Briefly, cells are incubated with a compound of the disclosure for 30 minutes at 37° C. prior to addition of EC70 concentration of 5-HT. After an additional 30 minutes, cAMP antibody/cell lysis solution is added (20 μL/well) and incubated for 60 minutes at room temperature. cAMP XS+EA reagent is added (20 μL/well) and incubated for 2 hours at room temperature. Luminescence is read on the Envision Multilabel plate reader.

5-HT7 receptors [2] = target: T1, 5-HT7 receptors; experiment: Radiolabeled binding ([3H]LSD competition, membrane fractions)

T1 sequence (P34969 whole entry, the tested form may be a part): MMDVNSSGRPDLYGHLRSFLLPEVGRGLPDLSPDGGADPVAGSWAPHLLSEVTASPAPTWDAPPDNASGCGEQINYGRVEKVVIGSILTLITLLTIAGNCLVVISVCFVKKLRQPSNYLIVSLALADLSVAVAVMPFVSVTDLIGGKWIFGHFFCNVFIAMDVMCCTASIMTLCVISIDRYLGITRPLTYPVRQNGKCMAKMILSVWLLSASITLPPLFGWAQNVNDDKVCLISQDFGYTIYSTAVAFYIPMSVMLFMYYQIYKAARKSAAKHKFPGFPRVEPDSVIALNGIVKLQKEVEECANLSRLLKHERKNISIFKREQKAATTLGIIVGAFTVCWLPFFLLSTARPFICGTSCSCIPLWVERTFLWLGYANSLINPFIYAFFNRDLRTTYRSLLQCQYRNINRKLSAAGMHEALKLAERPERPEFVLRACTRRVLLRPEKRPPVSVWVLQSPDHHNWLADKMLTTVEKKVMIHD

| Kb (5-HT7 receptors [1]) [nM] | Ki (5-HT7 receptors [2]) [nM] | SMILES |
| --- | --- | --- |
| 10 to 100 |  | CC(=O)NCC(=O)N1CCC2(CC1)C[C@H](CCN1CCN(c3ccc(F)cc3)CC1)OC2=O [Compound 6] |
| 10 to 100 | 50 to 200 | CS(=O)(=O)NCC(=O)N1CCC2(CC1)C[C@H](CCN1CCN(c3cccc(Cl)c3)CC1)OC2=O [Compound 9] |
